Experimental data taken from patent US11739074B2, “Ras inhibitors” (Revolution Medicines, Inc., priority 2019, dated 2023).
pEC50, pIC50: −log10 of the molar value. Like-named read-outs stand apart in the source and are kept apart here.

How the values were obtained:
AsPC-1 (K-Ras G12D) [1] = assay: Potency assay: pERK in AsPC-1 cells; type: cell-based; details: Homo sapiens
AsPC-1 (K-Ras G12D) [2] = assay: CellTiter-Glo cell viability assay, AsPC-1; type: cell-based; details: Homo sapiens, ASPC1, 120 h
Summary of the method: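 Luminescence from CellTiter-Glo serves as the viability read-out after cells are treated with compound for 5 days. Each well's signal is divided by the DMSO average and multiplied by 100, and curves are fitted by four-parameter logistic regression.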

[3] = ASPC1, AsPC-1 cells, K-Ras G12D, read-out: pERK EC50 (AsPC-1 KRAS G12D)
[4] = AsPC-1, K-Ras G12D, 5-day treatment, read-out: AsPC-1 Cell Viability IC50
[5] = ASPC1, read-out: pERK EC50 (AsPC-1 KRAS G12D)
[6] = read-out: AsPC-1 Cell Viability IC50, AsPC-1, K-Ras G12D, 5-day treatment

Structure (SMILES)	pEC50 (AsPC-1 (K-Ras G12D) [1]; [3])	pIC50 (AsPC-1 (K-Ras G12D) [2]; [4])	pEC50 (AsPC-1 (K-Ras G12D) [1]; [5])	pIC50 (AsPC-1 (K-Ras G12D) [2]; [6])
CCn1c(-c2cccnc2[C@H](C)OC)c2c3cc(ccc31)-c1cc(O)cc(c1)C[C@H](NC(=O)[C@H](C(C)C)N(C)C(=O)[C@H]1C[C@H](NC(=O)[C@H]3CN3)C1)C(=O)N1CCC[C@H](N1)C(=O)OCC(C)(C)C2 [Compound 182]	> 5.30	< 5.00		
CCn1c(-c2cccnc2[C@H](C)OC)c2c3cc(ccc31)-c1cc(O)cc(c1)C[C@H](NC(=O)[C@H](C(C)C)N(C)C(=O)CNC(=O)[C@H]1CN1)C(=O)N1CCC[C@H](N1)C(=O)OCC(C)(C)C2 [Compound 140]			> 5.30	5.00 to 6.00
CCn1c(-c2cccnc2[C@H](C)OC)c2c3cc(ccc31)-c1csc(n1)C[C@H](NC(=O)[C@H](C(C)C)N(C)C(=O)N1CC[C@H](N(C)C(=O)[C@@H]3CN3)C1)C(=O)N1CCC[C@H](N1)C(=O)OCC(C)(C)C2 [Compound 229]	> 5.30	5.00 to 6.00		
CCn1c(-c2cccnc2[C@H](C)OC)c2c3cc(ccc31)-c1cc(O)cc(c1)C[C@H](NC(=O)[C@H](C(C)C)N(C)C(=O)[C@]13C[C@H]1CCN3C(=O)[C@@H]1CN1)C(=O)N1CCC[C@H](N1)C(=O)OCC(C)(C)C2 [Compound 166]	> 5.30	5.00 to 6.00		
CCn1c(-c2cccnc2[C@H](C)OC)c2c3cc(ccc31)-c1cc(O)cc(c1)C[C@H](NC(=O)[C@H](C(C)C)N1CC[C@@]3(CCN(C[C@@H]4CN4)C3)C1=O)C(=O)N1CCC[C@H](N1)C(=O)OCC(C)(C)C2 [Compound 138]	> 5.30	< 5.00		
CCn1c(-c2cccnc2[C@H](C)OC)c2c3cc(ccc31)-c1cc(O)cc(c1)C[C@H](NC(=O)[C@H](C(C)C)N(C)C(=O)N1CCN(C(=O)[C@H]3CN3)CC1)C(=O)N1CCC[C@H](N1)C(=O)OCC(C)(C)C2 [Example 177, 4-((R)-aziridine-2-carbonyl)-N-((2S)-1-(((6^3S,4S)-1^1-ethyl-2^5-hydroxy-1^2-(2-((S)-1-methoxyethyl)pyridin-3-yl)-10,10-dimethyl-5,7-dioxo-6^1,6^2,6^3,6^4,6^5,6^6-hexahydro-1^1H-8-oxa-1(5,3)-indola-6(1,3)-pyridazina-2(1,3)-benzenacycloundecaphane-4-yl)amino)-3-methyl-1-oxobutan-2-yl)-N-methylpiperazine-1-carboxamide]	> 5.30	5.00 to 6.00		
CCn1c(-c2cccnc2[C@H](C)OC)c2c3cc(ccc31)-c1cc(O)cc(c1)C[C@H](NC(=O)[C@H](C(C)C)N(C)C(=O)[C@H]1C[C@H](NC(=O)[C@@H]3CN3)C1)C(=O)N1CCC[C@H](N1)C(=O)OCC(C)(C)C2 [Compound 167]	> 5.30	5.00 to 6.00		
CCn1c(-c2cccnc2[C@H](C)OC)c2c3cc(ccc31)-c1cc(O)cc(c1)C[C@H](NC(=O)[C@H](C(C)C)N(C)C(=O)C13CC(CN1C(=O)[C@H]1CN1)C3)C(=O)N1CCC[C@H](N1)C(=O)OCC(C)(C)C2 [Compound 164]	> 5.30	5.00 to 6.00		
CCn1c(-c2cccnc2[C@H](C)OC)c2c3cc(ccc31)-c1cc(O)cc(c1)C[C@H](NC(=O)[C@H](C(C)C)N(C)C(=O)CC1CN(C(=O)[C@H]3CN3)C1)C(=O)N1CCC[C@H](N1)C(=O)OCC(C)(C)C2 [Compound 179]	> 5.30	< 5.00		
CCn1c(-c2cccnc2[C@H](C)OC)c2c3cc(ccc31)-c1cc(O)cc(c1)C[C@H](NC(=O)[C@H](C(C)C)N(C)C(=O)[C@H]1CCCCN(C(=O)[C@H]3CN3)C1)C(=O)N1CCC[C@H](N1)C(=O)OCC(C)(C)C2 [Compound 247]	> 5.30	5.00 to 6.00		
CCn1c(-c2cccnc2[C@H](C)OC)c2c3cc(ccc31)-c1cc(O)cc(c1)C[C@H](NC(=O)[C@H](C(C)C)N(C)C(=O)N1CC[C@H](N(C)C(=O)[C@H]3CN3)C1)C(=O)N1CCC[C@H](N1)C(=O)OCC(C)(C)C2 [Compound 254]	> 5.30	< 5.00		
CCn1c(-c2cccnc2[C@H](C)OC)c2c3cc(ccc31)-c1cc(O)cc(c1)C[C@H](NC(=O)[C@H](C(C)C)N(C)C(=O)[C@H]1CC[C@@H](C)N1C(=O)[C@H]1CN1)C(=O)N1CCC[C@H](N1)C(=O)OCC(C)(C)C2 [Compound 154]			> 5.30	5.00 to 6.00
CCn1c(-c2cccnc2[C@H](C)OC)c2c3cc(ccc31)-c1cc(O)cc(c1)C[C@H](NC(=O)[C@H](C(C)C)N1CCC3(CCN(C(=O)[C@@H]4CN4)C3)C1=O)C(=O)N1CCC[C@H](N1)C(=O)OCC(C)(C)C2 (some centres unmarked) [Compound 113]	> 5.30	5.00 to 6.00		
CCn1c(-c2cnccc2COC)c2c3cc(ccc31)-c1cc(O)cc(c1)C[C@H](NC(=O)[C@H](C(C)C)N(C)C(=O)CN(C)C(=O)[C@H]1N[C@H]1c1ccc(OC)cc1)C(=O)N1CCC[C@H](N1)C(=O)OCC(C)(C)C2 [Compound 93]			> 5.30	< 5.00
CCn1c(-c2cccnc2[C@H](C)OC)c2c3cc(ccc31)-c1cc(O)cc(c1)C[C@H](NC(=O)[C@H](C(C)C)N(C)C(=O)c1ncc(NC(=O)[C@H]3CN3)n1C)C(=O)N1CCC[C@H](N1)C(=O)OCC(C)(C)C2 [Compound 84]	> 5.30	5.00 to 6.00		
CCn1c(-c2cccnc2[C@H](C)OC)c2c3cc(ccc31)-c1cc(O)cc(c1)C[C@H](NC(=O)[C@H](C(C)C)N(C)C(=O)[C@H]1CCN(S(=O)(=O)[C@H]3CN3C)C1)C(=O)N1CCC[C@H](N1)C(=O)OCC(C)(C)C2 (single isomer, unassigned) [Compound 57]	> 5.30	5.00 to 6.00		
CCn1c(-c2cccnc2[C@H](C)OC)c2c3cc(ccc31)-c1csc(n1)C[C@H](NC(=O)[C@H](C(C)C)N(C)C(=O)N(C)C1CN(C(=O)[C@@H]3CN3)C1)C(=O)N1CCC[C@H](N1)C(=O)OCC(C)(C)C2 [Compound 221]	> 5.30	5.00 to 6.00		
CCn1c(-c2cccnc2[C@H](C)OC)c2c3cc(ccc31)-c1cc(O)cc(c1)C[C@H](NC(=O)[C@H](C(C)C)N(C)C(=O)[C@]1(F)CCN(C(=O)[C@@H]3CN3)C1)C(=O)N1CCC[C@H](N1)C(=O)OCC(C)(C)C2 [Compound 184]	> 5.30	5.00 to 6.00		
CCn1c(-c2cnccc2COC)c2c3cc(ccc31)-c1cccc(c1)C[C@H](NC(=O)[C@H](C(C)C)N(C)C(=O)CCN=C=NC1(COC)CC1)C(=O)N1CCC[C@H](N1)C(=O)OCC(C)(C)C2 [72 A and B]	> 5.30	5.00 to 6.00		
CCn1c(-c2cccnc2[C@H](C)OC)c2c3cc(ccc31)-c1cc(O)cc(c1)C[C@H](NC(=O)[C@H](C(C)C)N(C)C(=O)C1CCN(S(=O)(=O)[C@@H]3CN3C)CC1)C(=O)N1CCC[C@H](N1)C(=O)OCC(C)(C)C2 (single isomer, unassigned) [Compound 119]	> 5.30	5.00 to 6.00		
CCn1c(-c2cccnc2[C@H](C)OC)c2c3cc(ccc31)-c1cc(O)cc(c1)C[C@H](NC(=O)[C@H](C(C)C)N(C)C(=O)CN(C)C(=O)[C@H]1CN1CCO)C(=O)N1CCC[C@H](N1)C(=O)OCC(C)(C)C2 (some centres unmarked) [Compound 161]			> 5.30	5.00 to 6.00
CCn1c(-c2cccnc2[C@H](C)OC)c2c3cc(ccc31)-c1cc(O)cc(c1)C[C@H](NC(=O)[C@H](C(C)C)N(C)C(=O)[C@H]1CCN(C(=O)[C@@H]3N[C@@H]3C3CC3)C1)C(=O)N1CCC[C@H](N1)C(=O)OCC(C)(C)C2 [Compound 198]	> 5.30	6.00 to 7.00		
CCn1c(-c2cccnc2[C@H](C)OC)c2c3cc(ccc31)-c1cc(O)cc(c1)C[C@H](NC(=O)[C@H](C(C)C)N(C)C(=O)CN(C)S(=O)(=O)[C@H]1CN1C)C(=O)N1CCC[C@H](N1)C(=O)OCC(C)(C)C2 (single isomer, unassigned) [Compound 91]	> 5.30	5.00 to 6.00		
CCn1c(-c2cccnc2[C@H](C)OC)c2c3cc(ccc31)-c1cc(O)cc(c1)C[C@H](NC(=O)[C@H](C(C)C)N(C)C(=O)N1CCN(C(=O)[C@H]3CN3)CC1=O)C(=O)N1CCC[C@H](N1)C(=O)OCC(C)(C)C2 [Compound 183]	> 5.30	< 5.00		
CCn1c(-c2cccnc2[C@H](C)OC)c2c3cc(ccc31)-c1cc(O)cc(c1)C[C@H](NC(=O)[C@H](C(C)C)N(C)C(=O)[C@@]1(F)CCN(C(=O)[C@@H]3CN3)C1)C(=O)N1CCC[C@H](N1)C(=O)OCC(C)(C)C2 [Compound 185]	> 5.30	5.00 to 6.00		
CCN1C[C@@H]1C(=O)N(C)CC(=O)N(C)[C@H](C(=O)N[C@H]1Cc2cc(O)cc(c2)-c2ccc3c(c2)c(c(-c2cccnc2[C@H](C)OC)n3CC)CC(C)(C)COC(=O)[C@@H]2CCCN(N2)C1=O)C1CCCC1 (some centres unmarked) [Compound 309]	> 5.30	7.00 to 8.00		
CCn1c(-c2cccnc2[C@H](C)OC)c2c3cc(ccc31)-c1cccc(c1)C[C@H](NC(=O)[C@H](C(C)C)N1CC[C@@H](CN=C=NCCOC)C1)C(=O)N1CCC[C@H](N1)C(=O)OCC(C)(C)C2 [Compound 121]	> 5.30	5.00 to 6.00		
CCn1c(-c2cccnc2[C@H](C)OC)c2c3cc(ccc31)-c1csc(n1)C[C@H](NC(=O)[C@H](C(C)C)N(C)C(=O)N1CC(N(C)C(=O)[C@@H]3CN3)C1)C(=O)N1CCC[C@H](N1)C(=O)OCC(C)(C)C2 [Compound 219]	> 5.30	5.00 to 6.00		
